In US10093627B2, “Tetrahydroquinoline derivatives and their use as Epac inhibitors” (Institut National de la Sante et de la Recherche Medicale …, priority 2012, dated 2018):

Tested on: Iso-induced ANF-Luc transcriptional activation
Assay: ANF-Luc transcriptional activation (Firefly luciferase assay) in rat neonatal cardiomyocytes
Format: cell-based
Details: Iso 10 μM, 8 h; FIG. 4A
Experimental: ANF and NFAT promoters were fused to the Firefly luciferase gene (ANF-Luc) (NFAT-Luc) to detect ANF and NFAT by Firefly Luciferase assay (see Materiel and Methods).
Rat neonatal cardiomyocytes were cotransfected with ANF-Luc and Epac1 or empty vector pcDNA3 as control. One day after transfection, cells were pretreated or not with CE3F4 (20 μM) for 30 min and stimulated or not with Iso (10 μM) for 8 h. Cells were then assayed for Luciferase activity. B) Iso-induced NFAT-Luc Transcriptional Activation is Blocked by CE3F4: Neonatal cardiomyocytes were transfected with NFAT-Luc. One day later cells were pretreated or not with CE3F4 (20 μM) for 30 min and stimulated or not with Iso (10 μM) for 8 h. The day after, cells were assayed for Luciferase activity.
Results were normalized to control for each experiment, and were expressed as means±S.E.M of at 4 (FIG. 4A) or 5 (FIG. 4B) independent experiments performed in triplicates.
The rat ANF promoter fused to the Firefly luciferase reporter gene (ANF-Luc) by Dr K. Knowlton, Epac and Rap1 plasmid construct (Epac1^WT) by Drs J. L. Bos and J. de Gunzburg, respectively. The Firefly luciferase reporter plasmid driven by four NFAT consensus binding sites (NFAT-Luc) was purchased from Stratagene. […]
Cells were lysed, and luminescence was detected using the Luciferase Assay System (Promega) according to the manufacturer's instructions with Tecan Infinite.

In the case of CC(C)NCC(O)c1ccc(O)c(O)c1 (stereo not shown) [Iso, Isoprenaline, reference compound], the “Effect of agonist on ANF (ANF-Luc)” value is reported as “increased ANF”.
